Each block holds one molecule with its values, some of them ahead of it. Active and inactive are the calls of the source. The calls are words filed in the database; no cut-off is given here.
Key:
[1] = Solubility of compound in water at < 50 mM after 30 mins; type: physicochemical; settings: buffer, 0.5 h
[2] = Solubility of compound in water at 10 mM after 30 mins; type: physicochemical; settings: buffer, 0.5 h, 10000 µM
[3] = Solubility of compound in water at 50 mM after 30 mins; type: physicochemical; settings: buffer, 0.5 h, 50000 µM
MDA-MB-231 [4] = assay: Antitumor activity against human MDA-MB-231 cells xenografted in SCID mouse assessed as reduction in tumor growth at 1 mg/kg, ip administered as single dose; type: functional, organism-based
MDA-MB-468 [5] = assay: Antitumor activity against human MDA-MB-468 cells xenografted in nude mouse assessed as reduction in tumor growth at 4 mg/kg, ip administered daily for 30 days by caliper method; type: functional, organism-based; settings: time 30.0 day
[6] = Toxicity in mouse xenografted with human MDA-MB-231 cells assessed as reduction in body weight at 1 mg/kg administered as single dose; type: organism-based; parameters: scale not given: the % may be the effect or the level left; settings: in vivo
MDA-MB-468 [7] = assay: Antitumor activity against human MDA-MB-468 cells xenografted in nude mouse assessed as invasive tumor growth at 4 mg/kg, ip administered daily for 30 days by H and E staining based histological analysis; type: functional, organism-based; settings: time 30.0 day
[8] = AUC in rat at 40 mg/kg, ip; type: ADME, organism-based; parameters: dose 40 mg/kg; settings: in vivo
MDA-MB-468 [9] = assay: Antitumor activity against human MDA-MB-468 cells xenografted in mouse assessed as reduction in tumor growth pretreated with compound at 40 mg/kg, ip administered for 3 days followed by tumor injection by caliper method; type: functional, organism-based; settings: time 3.0 day
[10] = molecular target: Cyclin-dependent kinase 9 (Homo sapiens, UniProt P50750); assay: Inhibition of CDK9 (unknown origin)
MDA-MB-231 [11] = assay: Additive antitumor activity against human MDA-MB-231 cells xenografted in SCID mouse assessed as reduction in tumor growth at 40 mg/kg, ip administered as 5 daily doses in presence of doxorubicin; type: functional, organism-based
MDA-MB-468 [12] = assay: Growth inhibition of human MDA-MB-468 cells after 5 days by MTT assay; type: functional, cell-based; settings: dose 0.078-10 µM, time 5.0 day
[13] = Toxicity in BALB/c mouse assessed as body weight gain at 40 mg/kg, ip administered with 5 daily doses and 2 days off and another 5 daily dosing schedule for 12 days; type: organism-based; settings: in vivo, 288 h, time 12 day
[14] = molecular target: Cyclin-dependent kinase 19 (Homo sapiens) (UniProt Q9BWU1); assay: Inhibition of human […] (M1 to N360 residues) expressed in bacterial expression system at 2000 nM by KINOMEscan assay relative to control
MDA-MB-468 [15] = assay: Antitumor activity against human MDA-MB-468 cells xenografted in nude mouse assessed as slower appearance of palpable tumor pretreated with compound at 25 mg/kg, ip administered 5 daily dose followed by tumor injection and monitored every day; type: functional, organism-based
[16] = Toxicity in BALB/c mouse assessed as decrease in kidney weight at 40 mg/kg, ip administered with 5 daily doses and 2 days off and another 5 daily dosing schedule for 12 days; type: organism-based; settings: in vivo, 288 h, time 12 day
MDA-MB-468 [17] = assay: Antitumor activity against human MDA-MB-468 cells xenografted in mouse assessed as reduction in tumor growth at 40 mg/kg, ip by caliper method; type: functional, organism-based
[18] = molecular target: T1, Cyclin-dependent kinase 8 (Homo sapiens, UniProt P49336); assay: Inhibition of human CDK8 (M1 to T360 residues) expressed in bacterial expression system at 2000 nM by KINOMEscan assay relative to control
MDA-MB-468 [19] = assay: Antitumor activity against human MDA-MB-468 cells xenografted in nude mouse assessed as reduction in tumor growth at 40 mg/kg, ip administered daily for 30 days by caliper method; type: functional, organism-based; settings: time 30.0 day
[20] = molecular target: T1, Cyclin-dependent kinase 8; assay: Inhibition of CDK8 (unknown origin)
[21] = Toxicity in BALB/c mouse assessed as decrease in brain weight at 40 mg/kg, ip administered with 5 daily doses and 2 days off and another 5 daily dosing schedule for 12 days; type: organism-based; settings: in vivo, 288 h, time 12 day
4T1 = assay: Growth inhibition of mouse 4T1 cells at 0.078 to 10 uM after 5 days by MTT assay; type: functional, cell-based; settings: dose 0.078-10 µM, time 5.0 day
[22] = Toxicity in BALB/c mouse assessed as decrease in lymphocytes count at 40 mg/kg, ip administered with 5 daily doses and 2 days off and another 5 daily dosing schedule for 12 days; type: organism-based; parameters: scale not given: the % may be the effect or the level left; settings: in vivo, 288 h, time 12 day
[23] = molecular target: T2, Catenin beta-1 (Homo sapiens) (UniProt P35222); assay: Inhibition of beta-catenin activity in human HCT116 cells assessed as reduction in TOPFlash promoter mediated luciferase expression; type: cell-based; settings: HCT-116, dose […]
T2 sequence (whole entry): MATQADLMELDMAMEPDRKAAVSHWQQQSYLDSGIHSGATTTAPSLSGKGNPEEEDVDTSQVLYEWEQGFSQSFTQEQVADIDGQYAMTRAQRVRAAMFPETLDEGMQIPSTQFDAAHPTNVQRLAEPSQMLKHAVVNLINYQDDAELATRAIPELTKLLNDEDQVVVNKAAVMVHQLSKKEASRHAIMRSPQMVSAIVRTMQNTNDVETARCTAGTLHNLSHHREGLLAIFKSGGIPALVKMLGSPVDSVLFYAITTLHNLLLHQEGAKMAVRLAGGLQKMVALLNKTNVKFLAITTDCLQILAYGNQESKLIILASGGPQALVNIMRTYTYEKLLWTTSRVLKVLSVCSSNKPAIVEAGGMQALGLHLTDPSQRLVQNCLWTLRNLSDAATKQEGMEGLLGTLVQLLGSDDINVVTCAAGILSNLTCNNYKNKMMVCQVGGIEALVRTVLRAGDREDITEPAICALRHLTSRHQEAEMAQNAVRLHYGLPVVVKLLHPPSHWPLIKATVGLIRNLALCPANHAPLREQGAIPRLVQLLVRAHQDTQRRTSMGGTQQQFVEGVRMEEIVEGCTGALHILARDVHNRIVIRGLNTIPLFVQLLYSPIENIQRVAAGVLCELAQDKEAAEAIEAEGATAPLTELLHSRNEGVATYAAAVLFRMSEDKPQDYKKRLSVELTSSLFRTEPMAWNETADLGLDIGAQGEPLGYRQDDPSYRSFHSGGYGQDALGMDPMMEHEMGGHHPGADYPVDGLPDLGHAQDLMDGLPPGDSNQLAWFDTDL

MDA-MB-157 = assay: Growth inhibition of human MDA-MB-157 cells after 5 days by MTT assay; type: functional, cell-based; settings: dose 0.078-10 µM, time 5.0 day
MDA-MB-231 [24] = assay: Antitumor activity against human MDA-MB-231 cells xenografted in SCID mouse assessed as reduction in tumor growth at 40 mg/kg, ip administered as 5 daily doses; type: functional, organism-based
[25] = Toxicity in BALB/c mouse assessed as decrease in spleen weight at 40 mg/kg, ip administered with 5 daily doses and 2 days off and another 5 daily dosing schedule for 12 days; type: organism-based; parameters: scale not given: the % may be the effect or the level left; settings: in vivo, 288 h, time 12 day
MDA-MB-468 [26] = assay: Antitumor activity against human MDA-MB-468 cells xenografted in nude mouse assessed as non-invasive tumor growth at 40 mg/kg, ip administered daily for 30 days in presence of doxorubicin by H and E staining based histological analysis; type: functional, organism-based; settings: time 30.0 day
A549 = assay: Antitumor activity against human A549 cells xenografted in CB-17 SCID mouse assessed as reduction in tumor growth pretreated with compound at 40 mg/kg, ip administered 5 daily dose followed by tumor injection and monitored twice a week starting from 7 days after post tumor injection to 24 days by caliper method; type: functional, organism-based; settings: time 24.0 day
[27] = Toxicity in BALB/c mouse assessed as decrease in liver weight at 40 mg/kg, ip administered with 5 daily doses and 2 days off and another 5 daily dosing schedule for 12 days; type: organism-based; settings: in vivo, 288 h, time 12 day
[28] = molecular target: T1, Cyclin-dependent kinase 8; assay: Inhibition of CDK8 in human HT1080 cells assessed as inhibition of IPTG-inducible p21 induced CMV-GFP expression by Hoechst 33342 staining-based fluorescence assay; type: cell-based; settings: HT-1080
[29] = molecular target: T1, Cyclin-dependent kinase 8; assay: Inhibition of CDK8 (unknown origin) by Pro-Qinase assay
[30] = Toxicity in BALB/c mouse assessed as decrease in lung weight at 40 mg/kg, ip administered with 5 daily doses and 2 days off and another 5 daily dosing schedule for 12 days; type: organism-based; settings: in vivo, 288 h, time 12 day
[31] = Plasma concentration in mouse at 100 mg/kg administered via gavage; type: ADME, organism-based; settings: in vivo, po
[32] = Toxicity in BALB/c mouse assessed as decrease in thymus weight at 40 mg/kg, ip administered with 5 daily doses and 2 days off and another 5 daily dosing schedule for 12 days; type: organism-based; settings: in vivo, 288 h, time 12 day
MDA-MB-468 [33] = assay: Antitumor activity against human MDA-MB-468 cells xenografted in nude mouse assessed as non-invasive tumor growth at 40 mg/kg, ip administered daily for 30 days by H and E staining based histological analysis; type: functional, organism-based; settings: time 30.0 day
MDA-MB-468 [34] = assay: Antitumor activity against human MDA-MB-468 cells xenografted in nude mouse assessed as reduction in tumor growth at 40 mg/kg, ip administered daily for 30 days in presence of doxorubicin by caliper method; type: functional, organism-based; settings: time 30.0 day
[35] = Toxicity in mouse xenografted with human MDA-MB-231 cells assessed as reduction in body weight at 40 mg/kg administered as 5 daily doses; type: organism-based; settings: in vivo

T1 sequence (P49336 whole entry, the tested form may be a part): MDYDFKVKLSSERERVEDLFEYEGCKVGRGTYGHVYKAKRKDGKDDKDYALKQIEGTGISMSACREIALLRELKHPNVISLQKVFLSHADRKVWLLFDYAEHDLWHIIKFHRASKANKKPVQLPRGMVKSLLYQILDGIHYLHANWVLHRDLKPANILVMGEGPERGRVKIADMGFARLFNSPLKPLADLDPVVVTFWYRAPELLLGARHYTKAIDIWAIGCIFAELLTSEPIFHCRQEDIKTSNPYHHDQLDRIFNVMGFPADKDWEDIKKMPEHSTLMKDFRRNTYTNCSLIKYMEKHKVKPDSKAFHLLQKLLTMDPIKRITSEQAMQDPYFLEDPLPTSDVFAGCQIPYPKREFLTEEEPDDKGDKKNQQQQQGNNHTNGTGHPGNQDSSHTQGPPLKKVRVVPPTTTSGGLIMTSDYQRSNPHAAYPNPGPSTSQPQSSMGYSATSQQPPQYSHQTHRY
Sequence of Cyclin-dependent kinase 19 (Homo sapiens) (Q9BWU1 whole entry, the tested form may be a part): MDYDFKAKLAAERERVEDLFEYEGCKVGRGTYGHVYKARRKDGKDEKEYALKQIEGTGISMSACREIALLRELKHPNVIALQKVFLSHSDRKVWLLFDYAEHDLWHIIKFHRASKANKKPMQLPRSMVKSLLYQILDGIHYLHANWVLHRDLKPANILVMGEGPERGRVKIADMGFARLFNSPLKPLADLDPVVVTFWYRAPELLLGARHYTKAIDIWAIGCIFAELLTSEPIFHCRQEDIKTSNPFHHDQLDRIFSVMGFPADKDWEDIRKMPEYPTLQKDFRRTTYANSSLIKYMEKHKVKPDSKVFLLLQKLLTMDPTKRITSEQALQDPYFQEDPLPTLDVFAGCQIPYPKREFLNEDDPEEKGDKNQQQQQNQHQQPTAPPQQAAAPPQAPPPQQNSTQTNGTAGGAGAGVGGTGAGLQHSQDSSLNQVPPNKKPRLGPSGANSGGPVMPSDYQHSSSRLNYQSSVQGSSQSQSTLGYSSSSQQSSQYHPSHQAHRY
Sequence of Cyclin-dependent kinase 9 (P50750 whole entry): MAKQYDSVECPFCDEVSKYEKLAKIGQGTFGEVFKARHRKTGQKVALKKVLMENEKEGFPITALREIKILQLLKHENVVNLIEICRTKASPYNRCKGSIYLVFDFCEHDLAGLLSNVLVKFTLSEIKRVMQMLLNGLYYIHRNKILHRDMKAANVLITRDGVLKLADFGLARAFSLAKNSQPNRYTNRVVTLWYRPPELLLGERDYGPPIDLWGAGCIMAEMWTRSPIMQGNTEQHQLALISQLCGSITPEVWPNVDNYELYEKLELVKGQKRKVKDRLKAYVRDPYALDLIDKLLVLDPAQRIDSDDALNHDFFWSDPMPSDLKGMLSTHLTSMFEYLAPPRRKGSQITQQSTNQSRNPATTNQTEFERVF

SMILES: CN1CCN(C(=O)c2cc(CNc3ncnc4ccc(C#N)cc34)ccc2Cl)CC1
solubility [1]: Soluble

SMILES: N#Cc1ccc2ncnc(NCc3ccc(Cl)c(C(=O)N4CCOCC4)c3)c2c1
solubility [3]: Soluble

SMILES: N#Cc1ccc2ncnc(NCCc3ccc(C(=O)N4CCOCC4)cc3)c2c1
solubility [2]: Soluble

SMILES: CN1CCN(C(=O)c2ccc(CCNc3ncnc4ccc(C#N)cc34)cc2)CC1
solubility [2]: Soluble

SMILES: N#Cc1ccc2ncnc(NCCc3ccc4cc(C(=O)N5CCOCC5)ccc4c3)c2c1
solubility [1]: Soluble

SMILES: COc1cccc2c1C(=O)c1c(O)c3c(c(O)c1C2=O)C[C@@](O)(C(=O)CO)C[C@@H]3O[C@H]1C[C@H](N)[C@H](O)[C@H](C)O1 [DOXORUBICIN]
Activity (MDA-MB-231 [4]): Active | Activity (MDA-MB-468 [5]): Active | Activity [6]: 15% | Activity (MDA-MB-468 [7]): Active

SMILES: CN1CCN(C(=O)c2ccc3cc(CCNc4ncnc5ccc(C#N)cc45)ccc3c2)CC1 [SENEXIN B]
AUC [8]: 14.1 µg·h/mL | Activity (MDA-MB-468 [9]): Active | Kd [10]: Not Active | Activity (MDA-MB-231 [11]): Active | growth inhibition (GI) (MDA-MB-468 [12]): Dose-Dependent Effect | Activity [13]: Non-Toxic | inhibition [14]: 98.6% | Activity (MDA-MB-468 [15]): Active | solubility [3]: Soluble | Activity [16]: Non-Toxic | Activity (MDA-MB-468 [17]): Active | inhibition [18]: 97.8% | Activity (MDA-MB-468 [19]): Active | Kd [20]: 0.14 µM | Activity [21]: Non-Toxic | growth inhibition (GI) (4T1): inactive | Activity [22]: 25% | inhibition [23]: Dose-Dependent Effect | growth inhibition (GI) (MDA-MB-157): Dose-Dependent Effect | Activity (MDA-MB-231 [24]): Active | Activity [25]: 20% | Activity (MDA-MB-468 [26]): Active | Activity (A549): Active | Activity [27]: Non-Toxic | inhibition [28]: Active | IC50 [29]: 0.024 µM | Activity [30]: Non-Toxic | concentration [31]: 50 µM | Activity [32]: Non-Toxic | Activity (MDA-MB-468 [33]): Active | Activity (MDA-MB-468 [34]): Active | Activity [35]: Non-Toxic

More lines, now with the values ahead:

solubility [2]: Soluble
SMILES: N#Cc1ccc2ncnc(NCCc3ccc(C(=O)N4CCC(N)C4)cc3)c2c1 (stereo not given)

solubility [2]: Soluble
SMILES: CN(C)CCNC(=O)c1ccc(CCNc2ncnc3ccc(C#N)cc23)cc1

solubility [2]: Soluble
SMILES: COCCNC(=O)c1ccc(CCNc2ncnc3ccc(C#N)cc23)cc1

solubility [2]: Soluble
SMILES: CN(C)C(=O)c1ccc(CCNc2ncnc3ccc(C#N)cc23)cc1

From ChEMBL document CHEMBL4806957, “Cdk8/cdk19 selective inhibitors and their use in anti-metastatic and chemopreventive methods for cancer” (2019)
